Data as given in US9265781B2, “Process for producing a particulate composition comprising anhydrous crystalline 2-O-alpha-D-glucosyl-L-ascorbic acid” (HAYASHIBARA CO., LTD., priority 2009, dated 2016).

Assays:
Type in all cases: physicochemical
[1] = Storage stability test (Experiment 3-2); parameters: key: “Caked” (+), clump(s) is/are detected in a test sample and the flowability of the test sample has lowered in comparison with that at the initiation of the test; “Not caked” (−), no clump is detected in a test sample and the flowability of the test sample has not been changed in comparison with that at the initiation of the test; details: 10 kg in open polyethylene-double-bag in uncapped steel can, 45 days; flowability and caked state
Source text: To confirm that the caking test conducted in Experiment 1-4, etc., is a proper test for evaluating the caking of a particulate composition containing anhydrous crystalline ascorbic acid 2-glucoside when actually stored, Test sample 1 obtained in Experiment 1-1, Test samples 10 to 15 obtained in Experiment 3-1, and Test sample 16 were subjected to a storage stability test which was designed by taking account of conditions, environment, and period of time for actual storage of a particulate composition containing anhydrous crystalline ascorbic acid 2-glucoside.
Ten kilogram aliquots of any of Test samples 1 and 10 to 16 were respectively weighed and placed in a polyethylene-double-bag (800 mm by 600 mm) for each test sample. Then, each bag was placed in a 18-liter steel can in such a manner of allowing the opening part of each bag to open and stand upright without closing the opening part, allowing the bags to stand without capping the steel cans, and storing for 45 days in a room away from a relatively high temperature and humidity. After 45 days storage, each polyethylene-double-bag enclosing any of the test samples was taken out from the cans, and the samples were taken out from the bags and placed on a black-plastic-plane-plate for macroscopic observation of their flowabilities and caked states.
The test samples were judged about their caking by the following criteria: “Caked” (+), clump(s) is/are detected in a test sample and the flowability of the test sample has lowered in comparison with that at the initiation of the test; and “Not caked” (−), no clump is detected in a test sample and the flowability of the test sample has not been changed in comparison with that at the initiation of the test. The storage form of each test sample in the storage stability test is the same as that of a quasi-drug-grade powder that is commercially distributed and stored, except for not closing the opening part of the bag with a rubber band, not putting in any desiccant, and being stored in a steel can without closing it with a lid. The above three differences were of those, which had been set as a storage environment for a storage test that was slightly harder than an actual storage environment, to expedite the test results. The results are in Table 3 in parallel.

[2] = Caking test (Experiment 1-4); parameters: key: “Caked”, (+): Sample clearly keeps the hemispherical shape of the bottom of the tube even when placed on the plate; “Slightly caked”, (±): Sample slightly but distinguishably shows the hemispherical shape of the bottom of the tube; “Not caked” (−): Sample does not keep the hemispherical shape of the bottom of the tube; details: 1 g in 14-ml polypropylene tube, 50° C., 24 hours, macroscopic observation
Method: The following experiment was performed to investigate the caking of respective Test samples 1 to 4: One gram aliquots of each of Test samples 1 to 4, prepared in Experiment 1-1, were separately filled into “FALCON TUBE 2059”, a product name of a 14-ml polypropylene cylindrical tube (1.7 cm in diameter, 10 cm in height) having a hemispherical bottom shape and a cap, commercialized by Becton, Dickinson and Company, New Jersey, USA. The tubes were uprightly set to a tube rack and allowed to stand for 24 hours, after the tube rack was placed in “IC-410”, a product name of an incubator commercialized Advantec Toyo Kaisha, Ltd., Tokyo, Japan, controlled at 50° C. After the incubation, the tubes were taken out from the incubator, followed by removing each cap, taking out each test sample from each tube to place it on a black-plastic-plane plate by turning the tubes upside down slowly, and macroscopically observing the conditions of the resulting test samples.

[3] = Solubility in hydrophilic solvent, 30% 1,3-butylene glycol (Experiment 6); details: same test as in Experiment 6
Source text: Any one of the above test samples and the particulate compositions of Examples 1 to 4 was weighed 0.25 g and placed in “FALCON TUBE 2059”, a product name of a 14-ml polypropylene cylindrical tube having a hemispherical bottom shape and a cap, commercialized by Becton, Dickinson and Company, New Jersey, USA. […]

Structure (SMILES)	Storage stability [1]	Caking [2]	Solubility in 1,3-butylene glycol (judgement in words) [3]
O=C1O[C@H]([C@@H](O)CO)C(O)=C1O[C@H]1O[C@H](CO)[C@@H](O)[C@H](O)[C@H]1O [Example for Reference 1, 2-O-α-D-glucosyl-L-ascorbic acid]	−	−	Impassable solubility
O=C1O[C@H]([C@@H](O)CO)C(O)=C1O[C@H]1O[C@H](CO)[C@@H](O)[C@H](O)[C@H]1O [Test sample 28, 2-O-α-D-glucosyl-L-ascorbic acid]		+	
O=C1O[C@H]([C@@H](O)CO)C(O)=C1O[C@H]1O[C@H](CO)[C@@H](O)[C@H](O)[C@H]1O [Test sample 7, 2-O-α-D-glucosyl-L-ascorbic acid]		−	
O=C1O[C@H]([C@@H](O)CO)C(O)=C1O[C@H]1O[C@H](CO)[C@@H](O)[C@H](O)[C@H]1O [Comparative Example 2, 2-O-α-D-glucosyl-L-ascorbic acid]		+	Passable solubility
O=C1O[C@H]([C@@H](O)CO)C(O)=C1O[C@H]1O[C@H](CO)[C@@H](O)[C@H](O)[C@H]1O [Test sample 10, 2-O-α-D-glucosyl-L-ascorbic acid]	+	+	
O=C1O[C@H]([C@@H](O)CO)C(O)=C1O[C@H]1O[C@H](CO)[C@@H](O)[C@H](O)[C@H]1O [Test sample 19, 2-O-α-D-glucosyl-L-ascorbic acid]	−	−	
O=C1O[C@H]([C@@H](O)CO)C(O)=C1O[C@H]1O[C@H](CO)[C@@H](O)[C@H](O)[C@H]1O [Example 2, 2-O-α-D-glucosyl-L-ascorbic acid]	−	−	
O=C1O[C@H]([C@@H](O)CO)C(O)=C1O[C@H]1O[C@H](CO)[C@@H](O)[C@H](O)[C@H]1O [Test sample 8, 2-O-α-D-glucosyl-L-ascorbic acid]		±	
O=C1O[C@H]([C@@H](O)CO)C(O)=C1O[C@H]1O[C@H](CO)[C@@H](O)[C@H](O)[C@H]1O [Test sample 4, 2-O-α-D-glucosyl-L-ascorbic acid]		−	
O=C1O[C@H]([C@@H](O)CO)C(O)=C1O[C@H]1O[C@H](CO)[C@@H](O)[C@H](O)[C@H]1O [Example 3, 2-O-α-D-glucosyl-L-ascorbic acid]	−	−	
O=C1O[C@H]([C@@H](O)CO)C(O)=C1O[C@H]1O[C@H](CO)[C@@H](O)[C@H](O)[C@H]1O [Example 6, 2-O-α-D-glucosyl-L-ascorbic acid]		−	Passable solubility
O=C1O[C@H]([C@@H](O)CO)C(O)=C1O[C@H]1O[C@H](CO)[C@@H](O)[C@H](O)[C@H]1O [Example 1, 2-O-α-D-glucosyl-L-ascorbic acid]	−	−	
O=C1O[C@H]([C@@H](O)CO)C(O)=C1O[C@H]1O[C@H](CO)[C@@H](O)[C@H](O)[C@H]1O [Test sample 22, 2-O-α-D-glucosyl-L-ascorbic acid]	−	−	

Results, then the molecule that gave them:

Storage stability [1]	Caking [2]	Solubility in 1,3-butylene glycol (judgement in words) [3]	Structure (SMILES)
	+		O=C1O[C@H]([C@@H](O)CO)C(O)=C1O[C@H]1O[C@H](CO)[C@@H](O)[C@H](O)[C@H]1O [Test sample 9, 2-O-α-D-glucosyl-L-ascorbic acid]
−	−		O=C1O[C@H]([C@@H](O)CO)C(O)=C1O[C@H]1O[C@H](CO)[C@@H](O)[C@H](O)[C@H]1O [Example 4, 2-O-α-D-glucosyl-L-ascorbic acid]
	+	Passable solubility	O=C1O[C@H]([C@@H](O)CO)C(O)=C1O[C@H]1O[C@H](CO)[C@@H](O)[C@H](O)[C@H]1O [Comparative Example 1, 2-O-α-D-glucosyl-L-ascorbic acid]
	− and ±	Passable solubility	O=C1O[C@H]([C@@H](O)CO)C(O)=C1O[C@H]1O[C@H](CO)[C@@H](O)[C@H](O)[C@H]1O [Example 8, 2-O-α-D-glucosyl-L-ascorbic acid]
+	+		O=C1O[C@H]([C@@H](O)CO)C(O)=C1O[C@H]1O[C@H](CO)[C@@H](O)[C@H](O)[C@H]1O [Test sample 20, 2-O-α-D-glucosyl-L-ascorbic acid]
	−		O=C1O[C@H]([C@@H](O)CO)C(O)=C1O[C@H]1O[C@H](CO)[C@@H](O)[C@H](O)[C@H]1O [Test sample 5, 2-O-α-D-glucosyl-L-ascorbic acid]
−	−		O=C1O[C@H]([C@@H](O)CO)C(O)=C1O[C@H]1O[C@H](CO)[C@@H](O)[C@H](O)[C@H]1O [Test sample 21, 2-O-α-D-glucosyl-L-ascorbic acid]
	−	Passable solubility	O=C1O[C@H]([C@@H](O)CO)C(O)=C1O[C@H]1O[C@H](CO)[C@@H](O)[C@H](O)[C@H]1O [Example 5, 2-O-α-D-glucosyl-L-ascorbic acid]
−	−		O=C1O[C@H]([C@@H](O)CO)C(O)=C1O[C@H]1O[C@H](CO)[C@@H](O)[C@H](O)[C@H]1O [Test sample 1, 2-O-α-D-glucosyl-L-ascorbic acid]
	+		O=C1O[C@H]([C@@H](O)CO)C(O)=C1O[C@H]1O[C@H](CO)[C@@H](O)[C@H](O)[C@H]1O [Test sample 2, 2-O-α-D-glucosyl-L-ascorbic acid]
	−	Passable solubility	O=C1O[C@H]([C@@H](O)CO)C(O)=C1O[C@H]1O[C@H](CO)[C@@H](O)[C@H](O)[C@H]1O [Example 7, 2-O-α-D-glucosyl-L-ascorbic acid]
	+		O=C1O[C@H]([C@@H](O)CO)C(O)=C1O[C@H]1O[C@H](CO)[C@@H](O)[C@H](O)[C@H]1O [Test sample 3, 2-O-α-D-glucosyl-L-ascorbic acid]
+	±		O=C1O[C@H]([C@@H](O)CO)C(O)=C1O[C@H]1O[C@H](CO)[C@@H](O)[C@H](O)[C@H]1O [Test sample 11, 2-O-α-D-glucosyl-L-ascorbic acid]
	−		O=C1O[C@H]([C@@H](O)CO)C(O)=C1O[C@H]1O[C@H](CO)[C@@H](O)[C@H](O)[C@H]1O [Test sample 6, 2-O-α-D-glucosyl-L-ascorbic acid]
